Numbers after ± are expanded uncertainties.
Conditions: 101.33 kPa, Liquid; for speed of sound: Sing-around technique in a fixed-path interferometer; for mass density: Vibrating tube method

Row | Structure (SMILES) | speed of sound (298.15 K) [m/s] | mass density (298.15 K) [kg/m3] | speed of sound (303.15 K) [m/s] | mass density (303.15 K) [kg/m3] | speed of sound (308.15 K) [m/s] | mass density (308.15 K) [kg/m3] | speed of sound (313.15 K) [m/s] | mass density (313.15 K) [kg/m3] | speed of sound (318.15 K) [m/s] | mass density (318.15 K) [kg/m3] | speed of sound (323.15 K) [m/s] | mass density (323.15 K) [kg/m3]
1 | CCCCCCCCCCO [decan-1-ol] | 1380 ± 3 | 826.36 ± 0.24 | 1363 ± 3 | 822.88 ± 0.24 | 1346 ± 3 | 819.43 ± 0.24 | 1329 ± 3 | 815.97 ± 0.24 | 1312 ± 3 | 812.49 ± 0.24 | 1296 ± 3 | 809.03 ± 0.24
2 | CCCCCCCCO [octan-1-ol] | 1349 ± 3 | 821.74 ± 0.26 | 1332 ± 3 | 818.26 ± 0.26 | 1315 ± 3 | 814.76 ± 0.26 | 1299 ± 3 | 811.24 ± 0.26 | 1282 ± 3 | 807.69 ± 0.26 | 1265 ± 3 | 804.12 ± 0.26
